pKd: −log10 of the molar value. Values joined by “and” are separate entries in the source; they are usually repeats but may differ in a detail not shown here. Equal entries are not always repeated.
Experiments:
[1] = target: T1, CYP2D6 in the presence of CPR (Homo sapiens, UniProt P10635); test: Spectroscopic titration, CYP2D6–CPR complex; format: binding
T1 construct: His-tag; made in house; host or cells: E. coli DH-5α with pTGro7 plasmid (CYP)
Description: For CBC titration to CYP–CPR complex, initially CYPs were dissolved in 400 μL of 0.1 M phosphate buffer (pH = 7.4) keeping the concentration between […]. Following this 50 μL of CPR (50 μM stock) was added to both cuvettes, and the final concentration of both of the proteins was 5–6 μM. Both proteins were initially mixed and incubated for 5 min followed by titration with CBC in the same process as mentioned above. The substrate-bound spectra were then subtracted from substrate-free spectra, and the extent of binding was analyzed using Origin Pro 2020.

[2] = tested on: BV2 microglial cells, stimulated with lipopolysaccharide (LPS); test: IL-6 ELISA in LPS-stimulated BV2 cells; format: cell-based, mouse; conditions: 0.1, 1.0, 2.5, 5.0 μM, LPS-stimulated
Description: BV2 cells were a gift from Dr. Bob McCusker, University of Illinois. They were cultured and maintained at 37 °C in a humidified atmosphere of 95% air and 5% CO2 in high-glucose Dulbecco’s modified Eagle’s (DMEM) medium (Cat No. 10-013-CV, Corning Life Sciences), supplemented with 5% heat-inactivated fetal bovine serum (FBS), streptomycin (100 μg/mL), and penicillin (100 units/mL). Stocks of all the minor cannabinoids were made in ethanol and stored at −80 °C and diluted as required before cell treatment. A final concentration of ethanol was maintained at 0.1% in the cell culture experiments.
BV-2 cells were plated at a density of 50 000 cells/well in a 24-well plate at 37 °C under controlled conditions. Cells were pretreated with the minor cannabinoids at various concentrations (0.1, 1.0, 2.5, 5.0 μM) for 4 h and then stimulated with LPS for 24 h. The culture medium was removed and saved for the determination of nitric oxide production through Cayman’s Griess assay. IL-6, TNFα, and Arginase 1 production was also determined utilizing collected medium. For the Greiss assay, in a 96-well plate, 100 μL of culture medium was used, and 50 μL of both Greiss reagent-1 and Greiss reagent-2 was added and incubated for 10 min. The absorbance was measured at 540 nm using a plate reader (SpectraMax iD5). The quantification was done using a calibration curve that was generated using the sodium nitrite standard obtained from Cayman Chemicals.
BV-2 cells were pretreated with the minor cannabinoids as described previously for 4 h in serum media (reduced to 5% FBS). Cells were stimulated with LPS (25 ng/mL in growth media) and allowed to incubate for 24 h. The culture medium was collected, and the concentrations of IL-6 (Cayman Chemicals), TNFα (ThermoFisher Scientific), and arginase 1 (ThermoFisher Scientific) cytokine expression were determined using specific monoclonal antibodies by ELISA kits as per manufacturer’s instructions.

CYP2D6 = CYP2D6 (Homo sapiens, UniProt P10635); test: Spectroscopic titration (Soret shift), CYP2D6; format: binding; set-up: His-tag; made in house; host or cells: E. coli DH-5α with pTGro7 plasmid; conditions: CYP2D6, absence of CPR
Description: CBC binding to various CYPs was determined by analyzing the Soret shift from ∼417 to ∼390 nm. CBC (stock 10 mM) was dissolved in ethanol and titrated with different CYPs at room temperature. Buffer-exchanged CYP2J2, CYP2D6, CYP3A4, and CYP2C8 (concentrations of proteins were kept between 4 and 5 μM) were dissolved in 0.1 M phosphate buffer (pH = 7.4), and initial spectra were recorded from 200 to 800 nm with a prominent peak at 417 nm. The concentration of CBC was varied from 0 to 100 μM keeping the final concentration of substrate in EtOH not more than 1% in cuvette. 0–4 μL of stock CBC was added using a Hamilton syringe in both the sample and blank cuvettes. The mixture was incubated for 5 min at 37 °C, and absorbance spectra were recorded using a Cary Bio 300 UV–vis spectrophotometer (Agilent Technologies, Santa Clara, CA). To eliminate the background absorbance, we derived the final spectra by […].

Sequence of CYP2D6 (P10635 whole entry): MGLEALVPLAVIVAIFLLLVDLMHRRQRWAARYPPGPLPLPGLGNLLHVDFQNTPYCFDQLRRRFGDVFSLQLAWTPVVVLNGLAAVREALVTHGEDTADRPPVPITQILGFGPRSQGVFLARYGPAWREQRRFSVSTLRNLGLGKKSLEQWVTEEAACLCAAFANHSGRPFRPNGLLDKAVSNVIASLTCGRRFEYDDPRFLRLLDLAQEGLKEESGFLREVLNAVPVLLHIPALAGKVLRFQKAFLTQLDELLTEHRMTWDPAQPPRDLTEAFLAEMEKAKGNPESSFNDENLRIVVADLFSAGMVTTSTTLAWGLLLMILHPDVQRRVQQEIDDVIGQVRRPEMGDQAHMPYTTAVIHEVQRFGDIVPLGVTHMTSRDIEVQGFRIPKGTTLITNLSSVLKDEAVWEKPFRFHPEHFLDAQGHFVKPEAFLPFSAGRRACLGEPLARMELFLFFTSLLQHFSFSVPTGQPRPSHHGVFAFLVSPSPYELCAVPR
T1 sequence (P10635 whole entry): as above
T1 sequence (P16435 whole entry partner): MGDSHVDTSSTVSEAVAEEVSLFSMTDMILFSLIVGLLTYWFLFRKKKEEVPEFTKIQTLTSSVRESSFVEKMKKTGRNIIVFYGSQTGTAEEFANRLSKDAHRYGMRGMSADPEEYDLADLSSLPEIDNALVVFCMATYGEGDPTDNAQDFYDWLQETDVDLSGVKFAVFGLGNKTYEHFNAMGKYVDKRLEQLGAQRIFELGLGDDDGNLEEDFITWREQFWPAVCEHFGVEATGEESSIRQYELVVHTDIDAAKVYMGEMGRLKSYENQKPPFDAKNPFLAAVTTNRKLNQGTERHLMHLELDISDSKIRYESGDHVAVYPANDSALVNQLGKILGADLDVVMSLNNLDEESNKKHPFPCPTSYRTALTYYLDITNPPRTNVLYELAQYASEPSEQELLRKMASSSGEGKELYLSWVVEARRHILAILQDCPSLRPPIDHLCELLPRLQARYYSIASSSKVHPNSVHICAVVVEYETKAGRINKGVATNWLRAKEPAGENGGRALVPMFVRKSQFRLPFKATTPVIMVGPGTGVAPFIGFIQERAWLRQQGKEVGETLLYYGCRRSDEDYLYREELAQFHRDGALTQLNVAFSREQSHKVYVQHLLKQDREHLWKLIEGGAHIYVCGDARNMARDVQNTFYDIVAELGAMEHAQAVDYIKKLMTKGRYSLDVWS

CCCCCc1cc(O)c2c(c1)OC(C)(CCC=C(C)C)C=C2 (centres unmarked) [CBC, Cannabichromene]
ΔAmax (spin state change due to heme perturbation) [1]: 0.04 ± 0.00 and 0.03–0.04
pKd ([1]; read-out: Kd(app)): 5.51 and > 5.00 and ~5.52
effect on IL-6 levels [2]: Concentration dependent reduction
ΔAmax (spin state change due to heme perturbation) (CYP2D6): 0.09 ± 0.01 and ~0.09
pKd (CYP2D6; read-out: Kd(app)): 4.94 and ~4.96
